The test system of experiment [1] is P. falciparum parasites. As to the kind of experiment: Parasite proliferation, [^3H]hypoxanthine incorporation assay, 48 hr. In kind it is cell-based. The note with it: Plasmodium falciparum; mean ± SEM, number of independent experiments in parentheses; read-out: IC50 for inhibition of parasite proliferation. The procedure:
(§1) Parasite growth assays were performed in 96-well plates over 48 hr (commencing at the ring stage) using a standard [^3H]hypoxanthine incorporation assay ([Desjardins et al., 1979]).
(§2) Dose-response curves were obtained using the expression y = y^min + y^max/(1 + [C/IC50]^b), where y is the parameter being measured (parasite proliferation, Na^+ influx, or ATPase activity), y^min is the minimum value of y, y^max is the maximum value of y, C is the concentration of the moiety that was varied in the experiment, IC50 is the concentration at which y was reduced to 50% of y^max, and b is a fitted constant.

Experiment [2] has as its system P. falciparum 3D7 trophozoites. In words: microbe, parasite or virus in culture. In kind it is cell-based, Plasmodium falciparum. The procedure: P. falciparum strains 3D7, Dd2, NITD609-R^Dd2 clone #2, Dd2^attB, and Dd2^attB CAM I398F/P990R were cultured under shaking conditions as described elsewhere ([Allen and Kirk, 2010]). Cultures were synchronized 24 hr before experimentation using 5% w/v sorbitol ([Lambros and Vanderberg, 1979]). All experiments were conducted on mature trophozoite-stage parasites (36–40 hr postinvasion) functionally isolated from their host erythrocytes by permeabilization of the erythrocyte and parasitophorous vacuole membranes by brief exposure to saponin (0.05% w/v) as described previously ([Spillman et al., 2008]).
(§3) The [Na^+]i of saponin-isolated parasites was measured at 37°C using the Na^+-sensitive dye SBFI (Molecular Probes, Invitrogen) in conjunction with a PerkinElmer LS 50B Fluorescence Spectrometer fitted with a Dual Excitation Fast Filter. Saponin-isolated parasites were loaded with SBFI by suspension (at 1.40–1.80 × 10^8 cells/mL) for 20 min at 37°C in bicarbonate-free RPMI1640 supplemented with 20 mM D-glucose, 0.2 mM hypoxanthine, 25 mM HEPES, and 25 mg/L gentamycin sulfate (pH 7.10), to which SBFI-acetoxymethyl ester (5.5 μM) and Pluronic F-127 (0.01% w/v) were added. The dye-loaded cells were washed twice (12,000 × g, 0.5 min) in bicarbonate-free RPMI then incubated for a further 20 min at 37°C to allow for complete de-esterification of the dye before being resuspended at a final cell concentration of 1.5–2.5 × 10^7 cells/mL in standard saline. The dye-loaded cells were excited at 340 nm and 380 nm with fluorescence recorded at 490 nm. Calibration of the relationship between the 340/380 nm fluorescence ratio and [Na^+]i (see Figures S1A–S1C) was carried out as described previously ([Diarra et al., 2001]; [Harootunian et al., 1989]).
The initial Na^+ influx rate (at t = 0) is a × Δ[Na^+]i^max.
as §2

Experiment [3] relates to P. falciparum trophozoites. As to the kind of experiment: Recovery of [Na^+]i from an imposed intracellular Na^+ load (K^+ removal and restoration). As to conditions: added with 10 mM KCl. Format: cell-based, Plasmodium falciparum. As to the method:
The mechanism responsible for the increase in [Na^+]i seen upon removal of extracellular K^+ was not investigated further here. However, the phenomenon does provide a useful means of imposing an intracellular Na^+ load on the parasite and of testing the effect of inhibitors on the net efflux of Na^+ from the Na^+-loaded parasite.
as §3, with “1989]). Several inhibitors used in this study caused inner filter effects ([Gu and Kenny, 2009]; [Srinivas and Mutharasan, 1987]); in these cases calibration curves were generated with the inhibitors present.” for “1989]).”
The rate of efflux of Na^+ from the cells, following an imposed intracellular Na^+ load, was estimated by fitting the following function to the [Na^+]i traces: [Na^+]i = Δ[Na^+]i^max × e^-at + [Na^+]i^final, where Δ[Na^+]i^max is the increase in [Na^+]i above the normal resting value (following the imposition of an intracellular Na^+-load), t is the time after the commencement of efflux (on addition of extracellular K^+), a is a fitted constant, and [Na^+]i^final is the final value of [Na^+]i. The initial Na^+ efflux rate (at t = 0) is a × Δ[Na^+]i^max, and the half-time to complete recovery (t1/2) is ln(0.5)/-a.

In experiment [4] the test system is P. falciparum trophozoites. In words: Cytosolic [Ca^2+]i in fura-2-loaded saponin-isolated parasites. Format: cell-based, Plasmodium falciparum. The note with it: 50 nM; medium containing 1 μM Ca^2+. As to the method:
[Ca^2+]i was measured with the Ca^2+-sensitive indicator fura-2 (Molecular Probes, Invitrogen) using a loading protocol identical to that described for SBFI. Calibration was performed as described previously ([Alleva and Kirk, 2001]).

The subject of experiment [5] is P. falciparum Dd2 parent. As to the kind of experiment: Parasite proliferation, [^3H]hypoxanthine incorporation, Dd2 parent. As to conditions: Plasmodium falciparum, DD2, read-out: IC50 for inhibition of parasite proliferation by NITD246. In kind it is cell-based. As to the method:
as §1, §2

Experiment [6] deals with P. falciparum NITD609-R^Dd2 clone #2 (mutant PfATP4). In words: Parasite proliferation, [^3H]hypoxanthine incorporation, NITD609-R^Dd2 clone #2. Format: cell-based. As to conditions: Plasmodium falciparum, mean ± SEM (n), read-out: IC50 for inhibition of parasite proliferation by NITD246. The procedure:
as §1, §2

Experiment [7] has as its system P. falciparum Dd2 parent. As to the kind of experiment: Disruption of [Na^+]i regulation, SBFI-loaded trophozoites, Dd2 parent. In kind it is cell-based. As to conditions: Plasmodium falciparum, DD2, read-out: IC50 for disruption of Na^+ regulation by NITD246. The procedure:
as §3, with “1989]). Several inhibitors used in this study caused inner filter effects ([Gu and Kenny, 2009]; [Srinivas and Mutharasan, 1987]); in these cases calibration curves were generated with the inhibitors present. […]” for “1989]).”

The test system of experiment [8] is P. falciparum Dd2^attB CAM I398F/P990R (mutant PfATP4 transfectant). As to the kind of experiment: Disruption of [Na^+]i regulation, SBFI-loaded trophozoites, Dd2^attB CAM I398F/P990R. In kind it is cell-based. The note with it: Plasmodium falciparum, from fitted curves, read-out: IC50 for disruption of Na^+ regulation by NITD246. The procedure: as §3, with “1989]). Several inhibitors used in this study caused inner filter effects ([Gu and Kenny, 2009]; [Srinivas and Mutharasan, 1987]); in these cases calibration curves were generated with the inhibitors present. […]” for “1989]).”

The structures appear in SMILES notation.

On to `C[C@H]1Cc2c([nH]c3cc(F)c(F)cc23)[C@@]2(N1)C(=O)Nc1ccc(Cl)cc12` [NITD246], for which the IC50 in experiment [1] was determined as 0.12 ± 0.02 nM; in experiment [2] (Plasmodium falciparum, concentration causing [Na^+]i to increase from resting value at half the maximal rate, from fitted curves, 3D7, standard saline, read-out: IC50 for disruption of Na^+ regulation) it was 2.1 ± 0.8 nM; in experiment [5], 0.08 ± 0.01 nM; in experiment [6], 0.89 ± 0.12 nM; in experiment [7] it was 1.6 ± 0.3 nM; in experiment [8], 3.9 ± 1.7 nM. For the same molecule, the “Effect on resting [Na^+]i” value in experiment [2] (50 nM, 3D7, standard saline) was “immediate rapid increase in [Na^+]i”. In addition, the “Rate of increase of [Na^+]i at maximally effective concentrations” value in experiment [2] (maximally effective concentration) is reported as 0.092 ± 0.007 mM/s. In addition, the “Effect on recovery of [Na^+]i after Na^+ load” value in experiment [3] (1 nM) was “[Na^+]i remaining at the level reached at the point of addition of extracellular K^+”; in experiment [3] (5 nM) it was “prolonged time-dependent increase in [Na^+]i”. In addition, the “Effect on [Ca^2+]i” value in experiment [4] is “no effect”.

Source of the values: article PMC3574224, “Na^+ Regulation in the Malaria Parasite Plasmodiumfalciparum Involves the Cation ATPase PfATP4 and Is a Target of the Spiroindolone Antimalarials” (Cell Host & Microbe, 2013).
